This assay deals with HIV-1. As to the kind of experiment: Trough LEN concentration associated with antiviral activity (inhibitory quotient-4). Conditions: IQ4 threshold / efficacy target. The text has this: Lenacapavir (LEN) is currently approved for the treatment of multidrug-resistant HIV-1 infection in combination with other antiretrovirals for heavily treatment-experienced (HTE) individuals. […] Given the importance of oral loading doses in achieving and maintaining concentrations >IQ4, options to make up for missed oral loading doses were considered. A population-pharmacokinetic (PopPK) model was utilized to simulate various dosing scenarios to guide missed oral loading-dose recommendations for the HTE population.

Structures are written as SMILES.

With `CC(C)(C#Cc1ccc(-c2ccc(Cl)c3c(NS(C)(=O)=O)nn(CC(F)(F)F)c23)c([C@H](Cc2cc(F)cc(F)c2)NC(=O)Cn2nc(C(F)(F)F)c3c2C(F)(F)[C@@H]2C[C@H]32)n1)S(C)(=O)=O` [LEN, N-((S)-1-(3-(4-chloro-3-(methylsulfonamido)-1-(2,2,2-trifluoroethyl)-1H-indazol-7-yl)-6-(3-methyl-3-(methylsulfonyl)but-1-yn-1-yl)pyridin-2-yl)-2-(3,5-difluorophenyl)ethyl)-2-((3bS,4aR)-5,5-difluoro-3-(trifluoromethyl)-3b,4,4a,5-tetrahydro-1H-cyclopropa [3,4]cyclopenta [1,2-c]pyrazol-1-yl) acetamide], the “mean trough LEN concentration associated with high antiviral activity (inhibitory quotient-4 [IQ4])” value was 15.5 ng/mL.

For the origin of these results see US20250090513A1, “DOSING REGIMEN OF HIV CAPSID INHIBITOR” (Gilead Sciences, Inc., priority 2023, published 2025).
